Values joined by “and” are separate entries in the source; they are usually repeats but may differ in a detail not shown here. Identical values can stand only once. Counter-ions that a name gives are not always drawn.
Columns and labels:
recombinant HIV-1 PR = recombinant HIV-1 PR (Human immunodeficiency virus type 1 group M subtype B, UniProt P04585); test: FRET-based HIV-1 PR inhibition assay; assay type: biochemical; settings: FRET substrate 5.0 µM, HIV-1 PR 35.2 nM, 37 °C, mean ± s.d., n = 3
[1] = Penetration and retention in mouse colorectal mucosa after rectal dosing; assay type: in vivo; settings: mice, rectal 200 µl of 30 µM; at 2 h and 1 d; result in words
[2] = in serum; ref [16]; cited from earlier work
HIV = settings: tenofovir gel formulation, vaginal mucosa, CAPRISA 004; ref [4],[5]; cited from earlier work
[3] = in vivo; cited from earlier work

Q: With `CC(C)CN(C[C@@H](O)[C@H](Cc1ccccc1)NC(=O)O[C@H]1CCOC1)S(=O)(=O)c1ccc(N)cc1` [APV, amprenavir] as the molecule, how does the “rate constant kobs of FRET substrate cleavage (slope of ln(F∞ – Ft) vs time)” value (recombinant HIV-1 PR; 1.0 µM APV) read?
A: −0.1638 (± 0.0080) min^−1 and −0.1638 (± 0.007995) min^−1

Q: What about the “rate constant kobs of FRET substrate cleavage (slope of ln(F∞ – Ft) vs time)” value (recombinant HIV-1 PR; 2.0 µM APV) of the same molecule?
A: −0.0890 (± 0.0049) min^−1 and −0.0890 (± 0.004938) min^−1

Q: What about the “rate constant kobs of FRET substrate cleavage (slope of ln(F∞ – Ft) vs time)” value (recombinant HIV-1 PR; 5.0 µM APV) of the same molecule?
A: −0.03766 (± 0.0019) min^−1 and −0.03766 (± 0.00191) min^−1

Q: And the “cell viability compared to untreated cells” value (MT-2 cells)?
A: no statistical difference in comparison to untreated cells

Q: For fluoresceine thiourea [FTU], which mucosal tissue concentration [1] is on record?
A: negligible

Q: For `CC(C)OC(=O)OCOP(=O)(CO[C@H](C)Cn1cnc2c(N)ncnc21)OCOC(=O)OC(C)C` [TDF, tenofovir disoproxil fumarate], which half-life [2] is on record?
A: about 17 hours

Q: For `C[C@H](Cn1cnc2c(N)ncnc21)OCP(=O)(O)O` [tenofovir], which “effectiveness in preventing HIV transmission” value (HIV) is on record?
A: 39%

Q: Which “vaginal concentrations in tissue after daily gel administration” value [3] does the source give for `CC(Cn1cnc2c(N)ncnc21)OCP(=O)(O)OP(=O)(O)OP(=O)(O)O` (stereo in doubt) [tenofovir diphosphate] here?
A: about 1000 fmol/mg
